Source: the supplement of paper PMC3621838
± gives the standard deviation of the averaged measurements.

Tested on: HEK293 NF-kB-luciferase reporter cells
Assay: NF-kB luciferase reporter activity, robust Z-score vs plate median (robust Z-score (log luminescence)); higher = stronger NF-kB reporter activation
Conditions: TNF treatment time 8.5 h, transfection time 72 h
Experimental: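 Primary screen of an Ambion Pre-miR miRNA mimic library (miRBase v8.0, 1.6 pmol/well, 384-well, duplicate) reverse-transfected into HEK293 cells stably expressing a 5x NF-kB firefly luciferase reporter. After 72 h the cells were treated with vehicle or TNF (40 ng/mL) for 8.5 h and luminescence was read (BriteLite). Raw luminescence was log-transformed and converted to a robust Z-score per plate: (x - plate median)/plate MAD. Sequence given is the mature miRNA strand of the double-stranded mimic.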

| Sequence | NF-kB luciferase reporter activity (TNF 0 ng/mL) | NF-kB luciferase reporter activity (TNF 40 ng/mL) |
| --- | --- | --- |
| UCCAGCUCCUAUAUGAUGCCUUU | 3.61 ± 0.75 | -0.188 ± 0.11 |
| AAUCAUACAGGGACAUCCAGUU | -0.326 ± 0.46 | 0.117 ± 0.12 |
| CCACACCGUAUCUGACACUUU | -0.604 ± 0.17 | 0.0155 ± 0.04 |
| UAGCAGCGGGAACAGUUCUGCAG | 0.878 ± 0.18 | 0.834 ± 0.021 |
| GUCAACACUUGCUGGUUUCCUC | -0.0513 ± 0.073 | -0.799 ± 0.029 |
| AUUACAUGGCCAAUCUC | 0.0633 ± 0.4 | 0.754 ± 0.24 |
| AUCCUUGCUAUCUGGGUGCUA | -0.588 ± 0.71 | 0.413 ± 0.069 |
| GGUAGAUUCUCCUUCUAUGAG | -0.702 ± 0.69 | -1.25 ± 0.063 |
| UUUGUUCGUUCGGCUCGCGUGA | -0.464 ± 1 | -3.19 ± 0.074 |
| UUCUCCAAAAGAAAGCACUUUCUG | -0.171 ± 0.24 | -1.816 ± 0.017 |
| ACUCAAAAUGGGGGCGCUUUCC | -0.706 ± 0.31 | 0.907 ± 0.14 |
| UGGUUGACCAUAGAACAUGCGC | -0.133 ± 0.5 | -2.27 ± 0.2 |
| CACCCGUAGAACCGACCUUGCG | -0.634 ± 0.41 | 0.175 ± 0.09 |
| CUCUAGAGGGAAGCGCUUUCUGUU | 1.69 ± 0.18 | 0.579 ± 0.019 |
| CCUCUGGGCCCUUCCUCCAG | 2.88 ± 0.89 | -0.776 ± 0.1 |
| AAAAGCUGGGUUGAGAGGGCGAA | -0.418 ± 0.33 | -0.74 ± 0.12 |
| AAUUGCACUUUAGCAAUGGUGA | 0.232 ± 0.073 | -0.707 ± 0.14 |
| CUCCAGAGGGAAGUACUUUCU | -1.38 ± 1.7 | -1.33 ± 0.13 |
| CUGGAUGGCUCCUCCAUGUCU | 0.547 ± 0.21 | -0.772 ± 0.095 |
| AAUAAUACAUGGUUGAUCUUU | -0.785 ± 0.09 | 0.0536 ± 0.043 |
| UCCCUGUCCUCCAGGAGCUCA | 0.322 ± 0.46 | 0.69 ± 0.39 |
| AACACACCUGGUUAACCUCUUU | -1.14 ± 0.07 | 0.254 ± 0.15 |

| Sequence | NF-kB luciferase reporter activity (TNF 0 ng/mL) | NF-kB luciferase reporter activity (TNF 40 ng/mL) |
| --- | --- | --- |
| AAAGCGCUUCCCUUUGCUGGA | -0.603 ± 0.07 | 0.608 ± 0.072 |
| AAUCGUACAGGGUCAUCCACUU | -0.187 ± 0.52 | 0.638 ± 0.17 |
| UCAGUGCAUCACAGAACUUUGU | 0.225 ± 0.32 | 0.0758 ± 0.04 |
| AGAGGUAGUAGGUUGCAUAGU | -0.2 ± 0.023 | -1.24 ± 0.038 |
| CUCUUGAGGGAAGCACUUUCUGUU | 1.14 ± 0.36 | 0.555 ± 0.059 |
| CUACAAAGGGAAGCACUUUCUC | -1.11 ± 0.64 | -1.63 ± 0.19 |
| UCGUGCAUCCCUUUAGAGUGUU | 1.73 ± 0.3 | 1.07 ± 0.079 |
| AUUCCUAGAAAUUGUUCAUA | 0.0899 ± 0.13 | 0.855 ± 0.032 |
| AGAGGUAUAGGGCAUGGGAAAA | -0.25 ± 0.57 | -1.06 ± 0.24 |
| UCAAGAGCAAUAACGAAAAAUGU | 0.225 ± 0.32 | 1.08 ± 0.015 |
| ACUAGACUGAAGCUCCUUGAGG | -0.0115 ± 0.13 | 0.7434 ± 0.0017 |
| UGGUAGACUAUGGAACGUA | 0.274 ± 0.8 | 0.0556 ± 0.21 |
| GUGUCUUUUGCUCUGCAGUCA | 0.568 ± 0.32 | 0.168 ± 0.045 |
| CUGGCCCUCUCUGCCCUUCCGU | 0.704 ± 0.42 | -0.112 ± 0.19 |
| AAAGUGCUUCCUUUUAGAGGGUU | -1.51 ± 0.46 | -0.653 ± 0.033 |
| AGACCCUGGUCUGCACUCUAU | 0.885 ± 0.42 | 0.7 ± 0.065 |
| AAAGUGCAUCCUUUUAGAGGUUU | -0.831 ± 1 | -0.425 ± 0.04 |
| AACAUUCAUUGUUGUCGGUGGGUU | 0.371 ± 0.31 | -0.631 ± 0.082 |
| AUCAUAGAGGAAAAUCCAUGUU | -0.92 ± 0.38 | -1.03 ± 0.066 |
| UCUGGCUCCGUGUCUUCACUCC | 0.957 ± 0.014 | -1.34 ± 0.046 |
| UAAACGUGGAUGUACUUGCUUU | -0.000139 ± 0.48 | 0.83 ± 0.16 |
| UAGCACCAUCUGAAAUCGGUU | 0.81 ± 0.93 | -2.2 ± 0.16 |

| Sequence | NF-kB luciferase reporter activity (TNF 0 ng/mL) | NF-kB luciferase reporter activity (TNF 40 ng/mL) |
| --- | --- | --- |
| AAAGUGCUUCCCUUUGGACUGU | -1.29 ± 0.15 | -0.57 ± 0.16 |
| AAAGUGCUUCCUUUUAGAGGC | -1.48 ± 0.11 | -0.83 ± 0.031 |
| GAAGUGCUUCGAUUUUGGGGUGU | -1.7 ± 0.2 | -0.363 ± 0.1 |
| UAUACAAGGGCAAGCUCUCUGU | -1.38 ± 0.64 | -1.11 ± 0.035 |
| CUGGACUUAGGGUCAGAAGGCC | 0.0764 ± 0.11 | 0.411 ± 0.022 |
| UUCCCUUUGUCAUCCUUCGCCU | 0.84 ± 0.23 | 0.327 ± 0.09 |
| CACUCAGCCUUGAGGGCACUUUC | -0.36 ± 0.51 | 1.02 ± 0.045 |
| UUCUCCAAAAGGGAGCACUUUC | 1.07 ± 0.25 | -1.42 ± 0.11 |
| GUGCCUACUGAGCUGAUAUCAGU | -0.791 ± 0.86 | 0.339 ± 0.13 |
| AUCGUGCAUCCCUUUAGAGUGUU | 4.42 ± 0.37 | 0.437 ± 0.046 |
| CUUUCAGUCGGAUGUUUACAGC | -0.449 ± 0.15 | 1 ± 0.025 |
| UUUUGCACCUUUUGGAGUGAA | 1.1 ± 0.92 | -0.163 ± 0.01 |
| CUGCAAAGGGAAGCCCUUUCU | -0.197 ± 1 | -0.78 ± 0.054 |
| UAGGCAGUGUCAUUAGCUGAUUG | 2.71 ± 0.93 | -1.42 ± 0.053 |
| GAGUGCCUUCUUUUGGAGCGU | -0.314 ± 0.76 | -0.822 ± 0.14 |
| UCGGGGAUCAUCAUGUCACGAG | 1.13 ± 0.071 | 0.339 ± 0.01 |
| ACUGCCCUAAGUGCUCCUUCU | 2.18 ± 0.41 | 0.608 ± 0.041 |
| AACUGGCCUACAAAGUCCCAG | 0.721 ± 0.19 | -1.18 ± 0.17 |
| CAGUGCAAUAGUAUUGUCAAAGC | 0.753 ± 0.32 | 0.85 ± 0.028 |
| UCUCUGGAGGGAAGCACUUUCUG | -0.463 ± 0.65 | -0.521 ± 0.11 |
| UGCUGACUCCUAGUCCAGGGC | -1.7 ± 0.2 | -3.27 ± 0.18 |
| AAUCAUACACGGUUGACCUAUU | 0 | -0.0786 ± 0.0065 |

| Sequence | NF-kB luciferase reporter activity (TNF 0 ng/mL) | NF-kB luciferase reporter activity (TNF 40 ng/mL) |
| --- | --- | --- |
| UGUUUGCAGAGGAAACUGAGAC | 1.44 ± 0.076 | -1.26 ± 0.051 |
| GCAAAGCACACGGCCUGCAGAGA | -0.287 ± 0.28 | -0.658 ± 0.027 |
| GAGGUUGUCCGUGGUGAGUUCG | -0.468 ± 0.88 | -2.08 ± 0.48 |
| CUGACCUAUGAAUUGACAGCC | -0.152 ± 0.091 | -0.0202 ± 0.12 |
| CUGGACUUGGAGUCAGAAGGCC | -1.02 ± 0.24 | -0.191 ± 0.11 |
| UCUCCCAACCCUUGUACCAGUG | 0.0398 ± 0.056 | 1.18 ± 0.046 |
| AGGUUACCCGAGCAACUUUGCA | 0.305 ± 0.58 | -0.0618 ± 0.016 |
| UCACAGUGAACCGGUCUCUUUC | -1.06 ± 0.48 | 0.0486 ± 0.083 |
| AGUGACAUCACAUAUACGGCAGC | -1.06 ± 0.48 | -2.733 ± 0.0029 |
| GAAGGCGCUUCCCUUUGGAGU | -0.702 ± 0.69 | -0.567 ± 0.046 |
| GGAGAAAUUAUCCUUGGUGUGU | 0.189 ± 0.13 | 0.256 ± 0.16 |
| UCUACAAAGGGAAGCCCUUUCUG | -0.631 ± 0.31 | 0.879 ± 0.11 |
| UACAGUAUAGAUGAUGUACUAG | 0.343 ± 0.35 | 0.659 ± 0.17 |
| AUCAUGAUGGGCUCCUCGGUGU | -0.346 ± 1.1 | -0.71 ± 0.099 |
| CAAAGCGCUCCCCUUUAGAGGU | 0 | 0.254 ± 0.098 |
| AAAGUGCUUCUCUUUGGUGGGUU | -1.14 ± 0.07 | -0.144 ± 0.11 |
| UAUGGCUUUUCAUUCCUAUGUG | -0.314 ± 0.58 | -0.369 ± 0.0092 |
| UUCAAGUAAUUCAGGAUAGGUU | 0.218 ± 0.18 | 0.0275 ± 0.0019 |
| AGAUCGACCGUGUUAUAUUCGC | 0.225 ± 0.32 | -0.0562 ± 0.026 |
| AUAAGACGAGCAAAAAGCUUGU | -0.187 ± 0.52 | -1.62 ± 0.032 |
| AAAGUGCUUCCUUUUAGAGGG | -1.32 ± 0.33 | -0.578 ± 0.11 |
| ACUUUAACAUGGAAGUGCUUUCU | -0.37 ± 0.4 | 0.272 ± 0.026 |
